Assay results: patent US9107411B2, “Indolecarboxamides and benzimidazolecarboxamides as insecticides and acaricides” (BAYER INTELLECTUAL PROPERTY GMBH, priority 2011, dated 2015)
Where two headings read alike, the source gives them in different places.

What was measured:
Boophilus microplus = Boophilus microplus test (BOOPMI injection); assay type: in vivo; settings: application rate 20 μg/animal; injected into the abdomen; after 7 days
Experimental: Boophilus microplus Test (BOOPMI Injection) Solvent: dimethyl sulphoxide To prepare an appropriate active ingredient formulation, 10 mg of active ingredient are mixed with 0.5 ml of solvent and the concentrate is diluted with solvent to the desired concentration. The active ingredient solution is injected into the abdomen (Boophilus microplus), and the animals are transferred into dishes and stored in a climate-controlled room. After 7 days, the efficacy in % is determined. The activity is assessed by laying of fertile eggs. 100% means that none of the ticks has laid any fertile eggs.

Ctenocephalides felis = Ctenocephalides felis oral (CTECFE); assay type: in vivo; settings: application rate 100 ppm in citrated cattle blood; after 2 days
Experimental: Ctenocephalides felis Oral ([…]) Solvent: 1 part by weight of dimethyl sulphoxide For the purpose of preparing an appropriate active ingredient formulation, 10 mg of active ingredient are mixed with 0.5 ml of dimethyl sulphoxide. A portion of the concentrate is diluted with citrated cattle blood, and the desired concentration is prepared. About 20 unfed adult fleas (Ctenocephalides felis) are placed into a chamber which is closed at the top and bottom with gauze. A metal cylinder whose bottom end is closed with Parafilm is placed onto the chamber. The cylinder contains the blood/active ingredient formulation, which can be imbibed by the fleas through the Parafilm membrane. After 2 days, the kill in % is determined 100% means that all of the fleas have been killed; 0% means that none of the fleas have been killed.

Lucilia cuprina larvae = assay: Lucilia cuprina test (LUCICU); assay type: in vivo; settings: application rate 100 ppm; treated horse meat; after 2 days
Experimental: Lucilia cuprina Test (LUCICU) Solvent: dimethyl sulphoxide To prepare an appropriate active ingredient formulation, 10 mg of active ingredient are mixed with 0.5 ml of dimethyl sulphoxide and the concentrate is diluted with water to the desired concentration. Vessels containing horse meat treated with the active ingredient formulation of the desired concentration are populated with about 20 Lucilia cuprina larvae. After 2 days, the kill in % is determined. 100% means that all of the larvae have been killed; 0% means that none of the larvae have been killed.

Phaedon cochleariae = assay: Phaedon test (PHAECO spray treatment); assay type: in vivo; settings: application rate 100 g/ha, Chinese cabbage leaf discs, after 7 days; for pest or weed control at 100 g/ha: Phaedon cochleariae, foliar, 168 h, read-out: efficacy in %
Experimental: Phaedon Test ([…] Spray Treatment) Solvent: 78.0 parts by weight of acetone • • 1.5 parts by weight of dimethylformamide Emulsifier: 0.5 part by weight of alkylaryl polyglycol ether To produce an appropriate active ingredient formulation, 1 part by weight of active ingredient is mixed with the stated amounts of solvent and emulsifier, and the concentrate is diluted with emulsifier-containing water to the desired concentration. Leaf discs of Chinese cabbage (Brassica pekinensis) are sprayed with an active ingredient formulation of the desired concentration and, after drying, populated with larvae of the mustard beetle (Phaedon cochleariae). After 7 days, the efficacy in % is determined. 100% means that all of the beetle larvae have been killed; 0% means that none of the beetle larvae have been killed.

logP (HPLC-MS) = assay type: physicochemical
Tetranychus urticae = assay: Tetranychus test, OP-resistant (TETRUR spray treatment); assay type: in vivo; settings: bean leaf discs, after 6 days
Experimental: Tetranychus Test, OP-Resistant (TETRUR Spray Treatment)
Solvent: 78.0 parts by weight of acetone • • 1.5 parts by weight of dimethylformamide
Emulgator: 0.5 part by weight of alkylaryl polyglycol ether
To produce an appropriate active ingredient formulation, 1 part by weight of active ingredient is mixed with the stated amounts of solvent and emulsifier, and the concentrate is diluted with emulsifier-containing water to the desired concentration.
Discs of bean leaves (Phaseolus vulgaris) infested by all stages of the red spider mite (Tetranychus urticae) are sprayed with an active ingredient formulation of the desired concentration.
After 6 days, the efficacy in % is determined. 100% means that all of the spider mites have been killed; 0% means that none of the spider mites have been killed.

Spodoptera frugiperda = Spodoptera frugiperda test (SPODFR spray treatment); assay type: in vivo; settings: application rate 100 g/ha; maize leaf discs; after 7 days
Experimental: Spodoptera frugiperda Test (SPODFR Spray Treatment) Solvent: 78.0 parts by weight of acetone • • 1.5 parts by weight of dimethylformamide To produce an appropriate active ingredient formulation, 1 part by weight of active ingredient is mixed with the stated amounts of solvent and emulsifier, and the concentrate is diluted with emulsifier-containing water to the desired concentration. Leaf discs of maize (Zea mays) are sprayed with an active ingredient formulation of the desired concentration and, after drying, populated with caterpillars of the armyworm (Spodoptera frugiperda). After 7 days, the efficacy in % is determined 100% means that all of the caterpillars have been killed; 0% means that none of the caterpillars have been killed.

[1] = HPLC, reversed-phase column (C18), acidic range pH 2.7, acetonitrile (0.1% formic acid)/water gradient, 43° C., calibration with unbranched alkan-2-ones
[2] = HPLC, reversed-phase column (C18), 43° C., acidic range pH 2.7, EEC directive 79/831 Annex V.A8, two values = both regioisomers (G = N)

log p (logP (HPLC-MS); [1])	log p (logP (HPLC-MS); [2])	Compound	efficacy in % (Phaedon cochleariae)	efficacy in % (Tetranychus urticae; application rate 100 g/ha)	efficacy in % (Spodoptera frugiperda)	further results
3.86		CCn1c(C(=O)NC(c2cccc(C(F)(F)F)c2)C(F)(F)F)cc2cc(C(=O)NC(CF)CF)c(Cl)cc21 (centres unmarked) [Compound 11]	100%			efficacy (laying of fertile eggs) (Boophilus microplus): 100%; efficacy (kill in %) (Ctenocephalides felis): 80%; efficacy (kill in %) (Lucilia cuprina larvae): 100%
3.86		C#CC1(NC(=O)c2cc3cc(C(=O)NC(c4cccc(C(F)(F)F)c4)C(F)(F)F)n(CC)c3cc2Cl)CC1 (centres unmarked) [Compound 32]	100%	100%		efficacy (laying of fertile eggs) (Boophilus microplus): 100%; efficacy (kill in %) (Ctenocephalides felis): 100%; efficacy (kill in %) (Lucilia cuprina larvae): 100%
	4.16	CCn1c(C(=O)NC(c2ccc(F)c(C(F)(F)F)c2)C(F)(F)F)cc2cc(C(=O)NC(C)C)c(C)cc21 (centres unmarked) [Compound 305]	100%	100%	100%	
3.77		CCn1c(C(=O)NC(c2ccc(F)c(C(F)(F)F)c2)C(F)(F)F)cc2cc(C(=O)NC3(C#N)CC3)c(C)cc21 (centres unmarked) [Compound 189]	100%	100%	100%	
	4.24	CCn1c(C(=O)NC(c2ccc(F)c(C(F)(F)F)c2)C(F)(F)F)cc2cc(C(=O)NC3CCC3)c(C)cc21 (centres unmarked) [Compound 304]	100%		100%	efficacy in % (Tetranychus urticae; application rate 500 g/ha): 100%
3.91		C#CCC(C#N)NC(=O)c1cc2cc(C(=O)NC(c3cccc(C(F)(F)F)c3)C(F)(F)F)n(CC)c2cc1Cl (centres unmarked) [Compound 268]	100%	100%	100%	
3.88		CCn1c(C(=O)NC(c2cccc(C(F)(F)F)c2)C(F)(F)F)cc2cc(C(=O)NC(C)CF)c(Cl)cc21 (centres unmarked) [Compound 8]	100%		100%	efficacy (laying of fertile eggs) (Boophilus microplus): 100%; efficacy (kill in %) (Ctenocephalides felis): 95%; efficacy (kill in %) (Lucilia cuprina larvae): 100%
	4.35	CCN(CC)C(=O)c1cc2cc(C(=O)NC(c3ccc(F)c(Cl)c3)C(F)(F)F)n(CC)c2cc1C (centres unmarked) [Compound 320]	100%	100%	100%	

More lines, now with the values behind:

Compound	log p (logP (HPLC-MS); [1])	log p (logP (HPLC-MS); [2])	efficacy in % (Phaedon cochleariae)	efficacy in % (Tetranychus urticae; application rate 100 g/ha)	efficacy in % (Spodoptera frugiperda)	further results
Cn1c(C(=O)NC(c2ccc(F)c(Br)c2)C(F)(F)F)cc2cc(C(=O)NC3CC3)c(Cl)cc21 (centres unmarked) [Compound 51]	3.61		100%	100%	100%	
C#CCn1c(C(=O)NC(c2cc(Cl)cc(Cl)c2)C(F)(F)F)cc2cc(C(=O)NC3(C#N)CC3)c(Cl)cc21 (centres unmarked) [Compound 66]	3.87		100%	100%	100%	
C#CCn1c(C(=O)NC(c2cccc(Br)c2)C(F)(F)F)cc2cc(C(=O)NC3(C#N)CC3)c(Cl)cc21 (centres unmarked) [Compound 60]	3.48		100%	100%	100%	
N#CC1(NC(=O)c2cc3cc(C(=O)NC(c4cccc(C(F)(F)F)c4)C(F)(F)F)n(C4CC4)c3cc2Cl)CC1 (centres unmarked) [Compound 302, 6-chloro-N^5-(1-cyanocyclopropyl)-1-cyclopropyl-N^2-{2,2,2-trifluoro-1-[3-(trifluoromethyl)phenyl]ethyl}-1H-indole-2,5-dicarboxamide]				100%	100%	pest or weed control at 100 g/ha (Phaedon cochleariae): 100%; chromatographic logP (logP (HPLC-MS); HPLC, reversed-phase column (C18), 43° C., acidic range pH 2.7, EEC directive 79/831 Annex V.A8, two values = both regioisomers (G = N), read-out: log p): 3.6; chromatographic logP (logP (HPLC-MS); HPLC-MS): 3.59
CCn1c(C(=O)NC(c2cc(Cl)c(F)c(Cl)c2)C(F)(F)F)cc2cc(C(=O)NC3CC3)c(C)cc21 (centres unmarked) [Compound 296]		4.16	100%	100%	100%	
CCn1c(C(=O)NC(c2cccc(C(F)(F)F)c2)C(F)(F)F)cc2cc(C(=O)NC3(C(N)=S)CC3)c(Cl)cc21 (centres unmarked) [Compound 273, N^5-(1-carbamothioylcyclopropyl)-6-chloro-1-ethyl-N^2-{2,2,2-trifluoro-1-[3-(trifluoromethyl)phenyl]ethyl}-1H-indole-2,5-dicarboxamide]				100%	100%	pest or weed control at 100 g/ha (Phaedon cochleariae): 100%; chromatographic logP (logP (HPLC-MS); HPLC, reversed-phase column (C18), acidic range pH 2.7, acetonitrile (0.1% formic acid)/water gradient, 43° C., calibration with unbranched alkan-2-ones, read-out: log p): 3.56; chromatographic logP (logP (HPLC-MS); HPLC-MS): 3.56
CCn1c(C(=O)NC(c2ccc(F)c(F)c2)C(F)(F)F)cc2cc(C(=O)NC3(C#N)CC3)c(C)cc21 (centres unmarked) [Compound 292]		3.48	100%	100%	100%	
C#CCn1c(C(=O)NC(c2cc(Cl)c(Cl)c(Cl)c2)C(F)(F)F)cc2cc(C(=O)NC3(C#N)CC3)c(Cl)cc21 (centres unmarked) [Compound 277]	4.24		100%	90%	100%	
CCn1c(C(=O)NC(c2cc(F)cc(Cl)c2)C(F)(F)F)cc2cc(C(=O)NC3(C#N)CC3)c(C)cc21 (centres unmarked) [Compound 293]		3.85	100%	100%	100%	
CCn1c(C(=O)NC(c2cc(F)cc(Cl)c2)C(F)(F)F)cc2cc(C(=O)NC3CC3)c(C)cc21 (centres unmarked) [Compound 298]		3.77	100%	100%	100%	
C#CCn1c(C(=O)NC(c2cccc(Cl)c2)C(F)(F)F)cc2cc(C(=O)NC3(C#N)CC3)c(Cl)cc21 (centres unmarked) [Compound 58]	3.42		100%	100%	100%	
